According to PubChem BioAssay (NCI):
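Following 48 hours of exposure in 96-well plates, responses at five concentrations were used to interpolate endpoints linearly. GI50 is the concentration that inhibits growth by half. At the TGI there is no net growth.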

Columns and labels:
Experiment in all cases: NCI tumour cell line growth inhibition, 48 h
SNB-75 CNS = test system: SNB-75 CNS
IGROV1 ovarian = test system: IGROV1 ovarian
HCT-116 colon = test system: HCT-116 colon
M14 melanoma = test system: M14 melanoma
OVCAR-8 ovarian = test system: OVCAR-8 ovarian
PC-3 prostate = test system: PC-3 prostate
NCI-H23 lung = test system: NCI-H23 lung
K-562 leukemia = test system: K-562 leukemia
A498 renal = test system: A498 renal
SF-268 CNS = test system: SF-268 CNS

SMILES	GI50 (SNB-75 CNS) [µM]	TGI (SNB-75 CNS) [µM]	GI50 (IGROV1 ovarian) [µM]	TGI (IGROV1 ovarian) [µM]	GI50 (HCT-116 colon) [µM]	TGI (HCT-116 colon) [µM]	GI50 (M14 melanoma) [µM]	TGI (M14 melanoma) [µM]	GI50 (OVCAR-8 ovarian) [µM]	TGI (OVCAR-8 ovarian) [µM]	GI50 (PC-3 prostate) [µM]	TGI (PC-3 prostate) [µM]	GI50 (NCI-H23 lung) [µM]	TGI (NCI-H23 lung) [µM]	GI50 (K-562 leukemia) [µM]	TGI (K-562 leukemia) [µM]	GI50 (A498 renal) [µM]	TGI (A498 renal) [µM]	GI50 (SF-268 CNS) [µM]	TGI (SF-268 CNS) [µM]
COc1ccc(-c2n/c(=C\c3c(O)[nH]c4ccccc34)cc3c2=Nc2ccccc2-3)cc1	2.07	21.1	15.3	47.7	1.55	2.88	1.15	2.43	1.42	3.11	1.3	9.31	1.55	3.09	1.45	3.63	2.42	13.2	1.64	3.58
O=C(Nc1ccc2ccccc2c1)c1cc2cc(CCl)ccc2oc1=O	–	38.5	–	> 100	–	> 100	–	> 100	–	> 100	–	> 100	–	> 100	–	> 100	–	> 100	–	73.5
CCOc1cc2c(cc1O)C(N)C[C@@H]1[C@@H]2CC[C@]2(C)[C@@H](O)CC[C@@H]12 (stereo partly specified)	–	95.4	–	> 100	39.7	> 100	–	98.4	–	> 100	–	> 100	–	> 100	–	73.2	–	> 100	–	> 100
CCOC(=O)C1=C(C)N(Cc2ccccc2)C2(O)C=CC(=O)C3=C(O)c4ccccc4C(=O)C312 (stereo unspecified)	–	55.4	–	17.5	–	21.8	–	16.3	–	39	–	> 100	–	26.7	–	61	–	60.3	–	23.7
Cc1csc(-n2c(C)nc3cc(Cl)ccc3c2=O)n1	–	> 100	–	> 100	–	> 100	–	> 100	–	> 100	–	> 100	–	> 100	–	> 100	–	> 100	–	> 100
CC(=O)c1sc2[n+](c1C)C(=O)/C(=C\c1ccccc1Cl)S2	–	65.9	–	33.8	–	37.6	–	40	–	77.5	–	49.9	–	38.5	–	80.6	–	74.3	–	64.5
Cc1ccccc1NC(=O)Cc1csc(N=Nc2c(O)[nH]c3ccccc23)n1	–	> 100	–	> 100	–	> 100	–	> 100	–	43.1	–	37.2	–	> 100	–	> 100	–	> 100	–	> 100
Cc1ccc2c(c1C)C(=O)/C(=C/c1cccc(C)c1C(=O)O)C2	–	> 100	–	> 100	–	> 100	–	> 100	–	> 100	–	> 100	–	> 100	–	> 100	–	99.2	–	> 100
CCNC(=S)N/N=C(\C)c1cccc(C)n1	–	> 100	–	> 100	–	53.1	–	26	–	> 100	–	> 100	–	> 100	–	> 100	–	45.3	–	17.2
CC(C)(C)C1=C(Br)C(OC(=O)C(F)(F)F)(C(C)(C)C)OP1(=O)c1ccccc1 (stereo unspecified)	–	> 100	–	> 100	–	> 100	–	> 100	–	> 100	–	93.5	–	> 100	–	> 100	–	> 100	–	> 100
C[C@H](CCC(=O)NCC(=O)O)[C@H]1CC[C@H]2[C@@H]3[C@H](O)C[C@@H]4C[C@H](O)CC[C@]4(C)[C@H]3CC[C@]12C	–	> 100	–	> 100	–	> 100	–	> 100	–	> 100	–	> 100	–	> 100	–	> 100	–	> 100	–	> 100
COc1ccc(CNc2nc3ccccc3nc2C(=O)O)cc1	–	> 100	–	> 100	–	> 100	–	> 100	–	> 100	–	> 100	–	> 100	–	> 100	–	> 100	–	> 100
CC/C(=C\c1ccc(OC)cc1)c1ccc(OC)cc1	–	> 100	–	> 100	–	> 100	–	> 100	–	> 100	–	> 100	–	> 100	–	> 100	–	> 100	–	> 100
CSCCCNC(=O)[C@H](CSC)NC(=O)c1csc(CCNC(=O)[C@@H](NSc2ccccc2[N+](=O)[O-])C(C)O)n1 (stereo partly specified)	–	> 100	–	> 100	–	> 100	–	> 100	–	> 100	–	> 100	–	> 100	–	> 100	–	> 100	–	> 100
CC[C@@]1(O)C(=O)OCc2c1cc1n(c2=O)Cc2c-1nc1ccccc1c2/C=N\NC(=O)C(N)Cc1c[nH]c2ccccc12 (stereo partly specified)	–	1.83	–	> 81.5	–	15.5	–	8.77	–	25	–	> 100	–	5.42	–	> 100	–	2.76	–	19.6
N#Cc1nc(-c2cccc(-c3nc(C#N)c(N)o3)n2)oc1N	–	> 100	–	> 100	–	> 100	–	> 100	–	> 100	–	> 100	–	> 100	–	> 100	–	> 100	–	> 100
O=c1[nH]c2ccc([N+](=O)[O-])cc2nc1/C=C(\O)c1ccccc1	–	58.3	–	> 100	–	> 100	–	> 100	–	49.4	–	> 100	–	73.3	–	> 100	–	47.4	–	58.3
